Laboratory results from publication PMC11997890, “In Vivo and In Vitro Pharmacokinetic Studies of a Dual Topoisomerase I/II Inhibitor” (ACS Pharmacology & Translational Science, 2025).

Legend:
[1] = system: OvCar8, A2780, Igrov-1 cells; test: Metabolism in ovarian cancer cell culture supernatants (HPLC); assay type: in vitro ADME, human; details: for total metabolism (sum of all detected metabolites as percentage of the substrate): supernatants of OvCar8, A2780, Igrov-1 after treatment
Protocol: After treatment, the supernatants of the cell cultures were collected in order to quantify metabolites by HPLC. In Figure 3 C, the total metabolism in % (as the sum of all detected metabolites as a percentage of the substrate) is shown in dependency of the respective treatment. Overall, P8-D6 is always the most metabolized substrate at ∼5%, followed by P8-D6 N-oxide at ∼2.6% and P8-D6 mono at ∼1%. […] In contrast to previous incubation with homogenized tissue (Figure ), P8-D6 was mostly metabolized to P8-DO (2.05%) and to a lesser extent to P8-D6 mono and P8-D6 N-oxide. P8-D6 mono was converted to P8-DO and less extensively metabolized to P8-D6 and a new unknown metabolite (0.10%). Due to the increased polarity and, therefore, decreased HPLC retention time, a nitrone would be thinkable. Such reactions have been described in the literature. − However, due to the very limited content of this metabolite, it could not be identified further. During incubation with P8-D6 N-oxide, P8-D6 features the major metabolite, while P8-D6 mono and P8-DO were formed to a lesser amount. The protein expression of Cyp3A4, mARC1 and 2, and FMO3 in the cell lines used was analyzed by Western blot (Figure 3 E).
(§1) The human ovarian cancer cell lines OvCar8, Igrov-1, and A2780, purchased from ATCC, were maintained in RPMI1640 medium, including L-glutamine supplemented with 10% fetal bovine serum and 60 IU/mL penicillin–streptomycin. Cells were grown at 37 °C and 5% CO2 in a humidified incubator and subcultivated at a confluency of 70–80%. Cell line authenticity was checked by STR profiling as described previously, and mycoplasma contamination was routinely investigated using MycoAlert (Lonza).

[2] = system: OvCar8 spheroids; test: 3D spheroid viability (RealTime-Glo); assay type: cell-based, human; details: for IC50: Homo sapiens, OVCAR-8, OvCar8 3D spheroids, 48 h
Protocol: (§2) Tumor complexity is represented more realistically in 3D spheroid models than in 2D monolayer models.
(§3) OvCar8 cells (8000/well) were seeded into an Ultra-Low-Attachment plate (Corning #4520) and grown for 96 h. Then, spheroids were treated with the drugs for 48 h. Cell cytotoxicity was assessed using the CellTox Green Cytotoxicity Assay (Promega #G8731) 48 h after treatment with NYONE ([…], 485Ex/520Em). Filters: BFEx/GreenEm (530/43 nm); BlueEx (475/28 nm)/GreenEm (530/43 nm). Viability and apoptosis were determined by RealTime-Glo (460Em) (Promega #G9711) and caspase-Glo 3/7 (565Em) (Promega #G8090) according to the manufacturer’s instructions using a microplate reader (Spark, Tecan). Relative caspase activity: caspase activity divided by the viability (normalized to control). For live-dead staining, cells were grown and treated as described above. Then, 80% of the medium was removed and replaced with propidium iodide (PI) (15 μM), calcein-AM (0.2 μM), and Hoechst 33342 (1.8 μM) in medium for 3 h and imaged by NYONE ([…]). Filters: BFEx/GreenEm(530/43 nm); Hoechst 33342: UVEx (377/50 nm)/BlueEm (452/45 nm); calcein-AM: BlueEx (475/28 nm)/GreenEm (530/43 nm); propidium iodide: LimeEx(562/40 nm)/RedEm(628/32 nm). All experiments were performed in biological triplicates. PBS was used as the negative control, and cisplatin and P8-D6 as the positive control.

[3] = system: OvCar8 cells; test: 2D monolayer apoptosis (caspase activity) assay (ApoLive-Glo); assay type: cell-based, human; details: 48 h
Protocol: The efficacy of metabolites can have a significant impact on the efficacy of the drug. […] The therapeutic effect of P8-D6 mono and P8-D6 N-oxide was investigated in vitro in human ovarian cancer 2D monolayers and 3D spheroids (Figures and ). 48 h of treatment of the ovarian cancer cell lines (OvCar8, A2780, Igrov-1) with P8-D6 mono and P8-D6 N-oxide was compared to P8-D6 and cisplatin (study preparation scheme supplied as Figure S5). Both metabolites decreased viability in ovarian cancer cells in a 2D monolayer (Figure A, supplied as Figure S3 A,C).
as §1, with “Cell line authenticity was checked by STR profiling as described previously, and mycoplasma contamination was routinely investigated using MycoAlert (Lonza).” left out
For the measurements of viability and apoptosis, cells of approximately 8000/well were seeded in a Corning No. 3903 plate and treated with the corresponding drugs for 48 h. […] Fluorescence and luminescence units were measured by using a microplate multimode reader (Spark, Tecan). Relative caspase activity was calculated as caspase activity divided by viability (normalized to control). […]

[4] = system: OvCar8 spheroids; test: 3D spheroid cytotoxicity (CellTox Green); assay type: cell-based; details: Homo sapiens, OVCAR-8, 48 h, OvCar8 3D spheroids, read-out: IC50 cell toxicity (CellTox Green)
Protocol: as §2, §3

Row | Structure (SMILES) | total metabolism (sum of all detected metabolites as percentage of the substrate) [1] | efficacy increased compared to cisplatin ([2]; 3D spheroids) | efficacy reduced compared to P8-D6 mono ([2]; 3D spheroids) | IC50 [2] | apoptosis rate higher than cisplatin ([3]; 10 μM) | IC50 [4] | apoptosis induction [3] | metabolite formed from P8-D6 ([1]; OvCar8 supernatant)
1 | COc1cc(-c2cc3ccncc3c3nc(OCC[N+](C)(C)[O-])c4cnccc4c23)cc(OC)c1OC [P8-D6 N-oxide] | ~2.6% | 18 fold | 3 fold | 0.72 µM | 3.5 fold |  |  | 
2 | CNCCOc1nc2c3cnccc3cc(-c3cc(OC)c(OC)c(OC)c3)c2c2ccncc12 [P8-D6 mono] | ~1% |  |  | 0.24 µM |  | 2.22 µM | comparable to that of P8-D6 | 
3 | COc1cc(-c2cc3ccncc3c3nc(OCCN(C)C)c4cnccc4c23)cc(OC)c1OC [P8-D6, 6-(N,N-dimethyl-2-aminoethoxy)-11-(3,4,5-trimethoxyphenyl)-pyrido[3,4-c][1,9]-phenanthroline] | ~5% |  |  |  |  | 1.11 µM |  | 
4 | COc1cc(-c2cc3ccncc3c3[nH]c(=O)c4cnccc4c23)cc(OC)c1OC [P8-DO] |  |  |  |  |  |  |  | 2.05%
